According to US20210308173A1, “PHARMACEUTICAL COMPOSITION COMPRISING CYCLODEXTRIN COMPLEXES OF ANETHOLE TRITHIONE OR DERIVATIVES THEREOF” (priority 2018, published 2021):
Converted amounts (≈) assume the structure as drawn. Where two headings read alike, the source gives them in different places.

Key:
[1] = Cyclodextrin-AOL solubility diagrams; type: physicochemical; conditions: for solubility: 4 °C; for solubility / solubility at 4 h: aqueous with cosolvent or surfactant or cyclodextrin, thermodynamic from solid
Description: A cyclodextrin-AOL solubility diagram would reveal the profile of the solubility curve of the AOL depending on the concentration of the cyclodextrin. The principle of this method is to add an excess of AOL to cyclodextrin solutions of increasing concentration, then to measure the amount of solubilized AOL. This method confirms the solubilization and evaluates more precisely the cyclodextrin solubilizing power, to define a stoichiometry of the complexes (molar and mass ratios) over the entire range of concentrations studied and to estimate the solubility limit and the stability of the mixtures.
The solubilization was carried out with HP-β-CD and SBE-β-CD in a range of concentration ranging from 2.5% to 40% (m/m) at 20° C., 25° C. and 30° C. To check the stability of the solution, a storage test at 4° C. for 48 hours was carried out with the solutions previously prepared at 20° C.
Aqueous solutions of cyclodextrin at in weight (m/m) concentrations of 2.5%, 5%, 10%, 20%, 30% and 40% were prepared in pure water. An excess of AOL was suspended in 2 mL each of these solutions. Each sample is shaken at 20° C., 25° C. or 30° C. for 4 hours (vortex at 1400 rpm). Each sample is centrifuged (12,500 g) and filtered through a 0.45 μm membrane.
The solubility of AOL in each test solution was quantified by HPLC as detailed in Example 2.

[2] = Chemical stability of AOL in cyclodextrin solutions by HPLC; type: physicochemical; conditions: associated with HP-β-CD, conditions of Example 4
[3] = SBE-β-CD 20% (w/w), 20° C. followed by 48 hours at 4° C.
[4] = SBE-β-CD 30% (w/w), 20° C. followed by 48 hours at 4° C.
[5] = SBE-β-CD 40% (w/w), 20° C. followed by 48 hours at 4° C.

## COc1ccc(-c2cc(=S)ss2)cc1 [AOL, 5-(4-methoxyphenyl)-3H-1,2-dithiole-3-thione]
[1]; SBE-β-CD 20% (w/w), 20° C.
  CD/AOL weight ratio Rm: 722
[1]; [3]
  CD/AOL molar ratio RM: 130
  CD/AOL weight ratio Rm: 1211
[1]; SBE-β-CD 20% (w/w), 25° C.
  CD/AOL molar ratio RM: 63
  CD/AOL weight ratio Rm: 587
[1]; SBE-β-CD 20% (w/w), 30° C.
  CD/AOL molar ratio RM: 50
  CD/AOL weight ratio Rm: 469
[1]; SBE-β-CD 30% (w/w), 20° C.
  CD/AOL molar ratio RM: 70
  CD/AOL weight ratio Rm: 650
[1]; [4]
  CD/AOL molar ratio RM: 112
  CD/AOL weight ratio Rm: 1049
[1]; SBE-β-CD 30% (w/w), 25° C.
  CD/AOL molar ratio RM: 56
  CD/AOL weight ratio Rm: 522
[1]; SBE-β-CD 30% (w/w), 30° C.
  CD/AOL molar ratio RM: 45
  CD/AOL weight ratio Rm: 417
[1]; SBE-β-CD 40% (w/w), 20° C.
  CD/AOL molar ratio RM: 64
  CD/AOL weight ratio Rm: 600
[1]; [5]
  CD/AOL molar ratio RM: 94
  CD/AOL weight ratio Rm: 876
[1]; SBE-β-CD 40% (w/w), 25° C.
  CD/AOL molar ratio RM: 51
  CD/AOL weight ratio Rm: 474
[1]; SBE-β-CD 40% (w/w), 30° C.
  CD/AOL molar ratio RM: 41
  CD/AOL weight ratio Rm: 383
[1]; aqueous HP-β-CD solution, HP-β-CD 2.5% (w/w), 20° C. followed by 48 hours at 4° C.
  solubility: 11.6 µg/mL (≈ 48.3 µM)
[1]; aqueous HP-β-CD solution, HP-β-CD 5% (w/w), 20° C. followed by 48 hours at 4° C.
  solubility: 25.1 µg/mL (≈ 104 µM)
[1]; aqueous HP-β-CD solution, HP-β-CD 10% (w/w), 20° C. followed by 48 hours at 4° C.
  solubility: 52.7 µg/mL (≈ 219 µM)
[1]; aqueous HP-β-CD solution, HP-β-CD 20% (w/w), 20° C. followed by 48 hours at 4° C.
  solubility: 109 µg/mL (≈ 452 µM)
[1]; aqueous HP-β-CD solution, HP-β-CD 30% (w/w), 20° C. followed by 48 hours at 4° C.
  solubility: 187 µg/mL (≈ 777 µM)
[1]; aqueous HP-β-CD solution, HP-β-CD 40% (w/w), 20° C. followed by 48 hours at 4° C.
  solubility: 270 µg/mL (≈ 1120 µM)
[1]; aqueous HP-β-CD solution, 20 °C, HP-β-CD 2.5% (w/w), 20° C., read-out: AOL solubility
  solubility at 4 h: 13.4 µg/mL (≈ 55.7 µM)
[1]; aqueous HP-β-CD solution, 20 °C, HP-β-CD 5% (w/w), 20° C., read-out: AOL solubility
  solubility at 4 h: 27.3 µg/mL (≈ 114 µM)
[1]; aqueous HP-β-CD solution, 30 °C, HP-β-CD 40% (w/w), 30° C., read-out: AOL solubility
  solubility at 4 h: 644 µg/mL (≈ 2680 µM)
[1]; aqueous SBE-β-CD solution, SBE-β-CD 2.5% (w/w), 20° C. followed by 48 hours at 4° C.
  solubility: 16.9 µg/mL (≈ 70.3 µM)
[1]; aqueous SBE-β-CD solution, SBE-β-CD 5% (w/w), 20° C. followed by 48 hours at 4° C.
  solubility: 34.6 µg/mL (≈ 144 µM)
[1]; aqueous SBE-β-CD solution, SBE-β-CD 10% (w/w), 20° C. followed by 48 hours at 4° C.
  solubility: 70.7 µg/mL (≈ 294 µM)
[1]; aqueous SBE-β-CD solution, SBE-β-CD 20% (w/w), 20° C. followed by 48 hours at 4° C.
  solubility: 165 µg/mL (≈ 687 µM)
[1]; aqueous SBE-β-CD solution, SBE-β-CD 30% (w/w), 20° C. followed by 48 hours at 4° C.
  solubility: 286 µg/mL (≈ 1190 µM)
[1]; aqueous SBE-β-CD solution, SBE-β-CD 40% (w/w), 20° C. followed by 48 hours at 4° C.
  solubility: 457 µg/mL (≈ 1900 µM)
[1]; aqueous SBE-β-CD solution, 20 °C, SBE-β-CD 2.5% (w/w), 20° C., read-out: AOL solubility
  solubility at 4 h: 29.3 µg/mL (≈ 122 µM)
[1]; aqueous SBE-β-CD solution, 20 °C, SBE-β-CD 5% (w/w), 20° C., read-out: AOL solubility
  solubility at 4 h: 59.7 µg/mL (≈ 248 µM)
[1]; aqueous SBE-β-CD solution, 20 °C, SBE-β-CD 10% (w/w), 20° C., read-out: AOL solubility
  solubility at 4 h: 125 µg/mL (≈ 521 µM)
[1]; aqueous SBE-β-CD solution, 20 °C, SBE-β-CD 20% (w/w), 20° C., read-out: AOL solubility
  solubility at 4 h: 277 µg/mL (≈ 1150 µM)
[1]; aqueous SBE-β-CD solution, 20 °C, SBE-β-CD 30% (w/w), 20° C., read-out: AOL solubility
  solubility at 4 h: 462 µg/mL (≈ 1920 µM)
[1]; aqueous SBE-β-CD solution, 20 °C, SBE-β-CD 40% (w/w), 20° C., read-out: AOL solubility
  solubility at 4 h: 667 µg/mL (≈ 2770 µM)
[1]; aqueous SBE-β-CD solution, 25 °C, SBE-β-CD 2.5% (w/w), 25° C., read-out: AOL solubility
  solubility at 4 h: 35.8 µg/mL (≈ 149 µM)
[1]; aqueous SBE-β-CD solution, 25 °C, SBE-β-CD 5% (w/w), 25° C., read-out: AOL solubility
  solubility at 4 h: 74.9 µg/mL (≈ 312 µM)
[1]; aqueous SBE-β-CD solution, 25 °C, SBE-β-CD 10% (w/w), 25° C., read-out: AOL solubility
  solubility at 4 h: 156 µg/mL (≈ 651 µM)
[1]; aqueous SBE-β-CD solution, 25 °C, SBE-β-CD 20% (w/w), 25° C., read-out: AOL solubility
  solubility at 4 h: 340 µg/mL (≈ 1420 µM)
[1]; aqueous SBE-β-CD solution, 25 °C, SBE-β-CD 30% (w/w), 25° C., read-out: AOL solubility
  solubility at 4 h: 575 µg/mL (≈ 2390 µM)
[1]; aqueous SBE-β-CD solution, 25 °C, SBE-β-CD 40% (w/w), 25° C., read-out: AOL solubility
  solubility at 4 h: 844 µg/mL (≈ 3510 µM)
[1]; aqueous SBE-β-CD solution, 30 °C, SBE-β-CD 2.5% (w/w), 30° C., read-out: AOL solubility
  solubility at 4 h: 44.7 µg/mL (≈ 186 µM)
[1]; aqueous SBE-β-CD solution, 30 °C, SBE-β-CD 5% (w/w), 30° C., read-out: AOL solubility
  solubility at 4 h: 96.2 µg/mL (≈ 400 µM)
[1]; aqueous SBE-β-CD solution, 30 °C, SBE-β-CD 10% (w/w), 30° C., read-out: AOL solubility
  solubility at 4 h: 197 µg/mL (≈ 821 µM)
[1]; aqueous SBE-β-CD solution, 30 °C, SBE-β-CD 20% (w/w), 30° C., read-out: AOL solubility
  solubility at 4 h: 427 µg/mL (≈ 1780 µM)
[1]; aqueous SBE-β-CD solution, 30 °C, SBE-β-CD 30% (w/w), 30° C., read-out: AOL solubility
  solubility at 4 h: 720 µg/mL (≈ 3000 µM)
[1]; aqueous SBE-β-CD solution, 30 °C, SBE-β-CD 40% (w/w), 30° C., read-out: AOL solubility
  solubility at 4 h: 1040 µg/mL (≈ 4340 µM)
[1]; aqueous cyclodextrin solution, 20 °C, HP-β-CD 10% (w/w), 20° C., read-out: AOL solubility
  solubility at 4 h: 61.3 µg/mL (≈ 255 µM)
[1]; aqueous cyclodextrin solution, 20 °C, HP-β-CD 20% (w/w), 20° C., read-out: AOL solubility
  solubility at 4 h: 145 µg/mL (≈ 602 µM)
[1]; aqueous cyclodextrin solution, 20 °C, HP-β-CD 30% (w/w), 20° C., read-out: AOL solubility
  solubility at 4 h: 243 µg/mL (≈ 1010 µM)
[1]; aqueous cyclodextrin solution, 20 °C, HP-β-CD 40% (w/w), 20° C., read-out: AOL solubility
  solubility at 4 h: 344 µg/mL (≈ 1430 µM)
[1]; aqueous cyclodextrin solution, 25 °C, HP-β-CD 2.5% (w/w), 25° C., read-out: AOL solubility
  solubility at 4 h: 19.5 µg/mL (≈ 81.1 µM)
[1]; aqueous cyclodextrin solution, 25 °C, HP-β-CD 5% (w/w), 25° C., read-out: AOL solubility
  solubility at 4 h: 40.1 µg/mL (≈ 167 µM)
[1]; aqueous cyclodextrin solution, 25 °C, HP-β-CD 10% (w/w), 25° C., read-out: AOL solubility
  solubility at 4 h: 83.9 µg/mL (≈ 349 µM)
[1]; aqueous cyclodextrin solution, 25 °C, HP-β-CD 20% (w/w), 25° C., read-out: AOL solubility
  solubility at 4 h: 184 µg/mL (≈ 766 µM)
[1]; aqueous cyclodextrin solution, 25 °C, HP-β-CD 30% (w/w), 25° C., read-out: AOL solubility
  solubility at 4 h: 287 µg/mL (≈ 1200 µM)
[1]; aqueous cyclodextrin solution, 25 °C, HP-β-CD 40% (w/w), 25° C., read-out: AOL solubility
  solubility at 4 h: 418 µg/mL (≈ 1740 µM)
[1]; aqueous cyclodextrin solution, 30 °C, 30° C., 40% (w/w) HP-β-CD, read-out: highest solubility reached
  solubility at 4 h: 650 µg/mL (≈ 2700 µM)
[1]; aqueous cyclodextrin solution, 30 °C, 30° C., 40% SBE-β-CD, read-out: solubility
  solubility at 4 h: > 1000 µg/mL
[1]; aqueous cyclodextrin solution, 30 °C, HP-β-CD 2.5% (w/w), 30° C., read-out: AOL solubility
  solubility at 4 h: 26.1 µg/mL (≈ 109 µM)
[1]; aqueous cyclodextrin solution, 30 °C, HP-β-CD 5% (w/w), 30° C., read-out: AOL solubility
  solubility at 4 h: 51.4 µg/mL (≈ 214 µM)
[1]; aqueous cyclodextrin solution, 30 °C, HP-β-CD 10% (w/w), 30° C., read-out: AOL solubility
  solubility at 4 h: 114 µg/mL (≈ 476 µM)
[1]; aqueous cyclodextrin solution, 30 °C, HP-β-CD 20% (w/w), 30° C., read-out: AOL solubility
  solubility at 4 h: 255 µg/mL (≈ 1060 µM)
[1]; aqueous cyclodextrin solution, 30 °C, HP-β-CD 30% (w/w), 30° C., read-out: AOL solubility
  solubility at 4 h: 458 µg/mL (≈ 1900 µM)
[2]
  chemical stability (HPLC impurities): chemical instability
